From ChEMBL document CHEMBL2385027, “Evaluation of 2'-α-fluorine modified nucleoside phosphonates as potential inhibitors of HCV polymerase” (Bioorg Med Chem Lett, 2013)
pEC50, pIC50: −log10 of the molar value.

Assays:
[1] = Cytotoxicity against human HuH7 cells; assay type: cell-based, Huh-7
Hepatitis C virus [2] = assay: Antiviral activity against Hepatitis C virus infected in human Huh7 cells assessed as inhibition of HCV replication; assay type: functional, organism-based, Hepacivirus hominis; conditions: Huh-7
[3] = Cytostatic activity against human MT4 cells; assay type: cell-based
Hepatitis C virus [4] = assay: Inhibition of HCV 1b NS5b polymerase; set-up: species or system Hepatitis C virus subtype 1b

Row | SMILES | pEC50 (Hepatitis C virus [2]) | CC50 [1] | CC50 [3] | pIC50 (Hepatitis C virus [4])
1 | Nc1ncnc2c1ncn2[C@@H]1O[C@H](/C=C/P(=O)(O)O)[C@@H](O)[C@H]1F [listing 1 of 2 here] | 3.88 | > 250 µM | – | –
2 | O=c1ccn([C@@H]2O[C@H](/C=C/P(=O)(O)O)[C@@H](O)[C@H]2F)c(=O)[nH]1 [listing 1 of 2 here] | < 3.60 | > 250 µM | – | –
3 | Nc1ccn([C@@H]2O[C@H](/C=C/P(=O)(O)O)[C@@H](O)[C@H]2F)c(=O)n1 [listing 1 of 2 here] | 4.12 | > 250 µM | – | –
4 | Nc1ncnc2c1ncn2[C@@H]1O[C@H](CCP(=O)(O)O)[C@@H](O)[C@H]1F [listing 1 of 2 here] | < 3.30 | > 500 µM | – | –
5 | CCCCOC(=O)[C@H](C)NP(=O)(/C=C/[C@H]1O[C@@H](n2cnc3c(N)ncnc32)[C@H](F)[C@@H]1O)N[C@@H](C)C(=O)OCCCC | 4.24 | 113 µM | 18 µM | –
6 | CCCCOC(=O)[C@H](C)NP(=O)(/C=C/[C@H]1O[C@@H](n2ccc(=O)[nH]c2=O)[C@H](F)[C@@H]1O)N[C@@H](C)C(=O)OCCCC | 4.84 | > 250 µM | 92 µM | –
7 | O=c1ccn([C@@H]2O[C@H](CO)[C@@H](O)[C@H]2F)c(=O)[nH]1 | – | – | – | 4.89
8 | Nc1ncnc2c1ncn2[C@@H]1O[C@H](/C=C/P(=O)(O)O)[C@@H](O)[C@H]1F [listing 2 of 2 here] | – | – | – | 5.68
9 | O=c1ccn([C@@H]2O[C@H](/C=C/P(=O)(O)O)[C@@H](O)[C@H]2F)c(=O)[nH]1 [listing 2 of 2 here] | – | – | – | 4.51
10 | Nc1ccn([C@@H]2O[C@H](/C=C/P(=O)(O)O)[C@@H](O)[C@H]2F)c(=O)n1 [listing 2 of 2 here] | – | – | – | 5.72
11 | Nc1ncnc2c1ncn2[C@@H]1O[C@H](CCP(=O)(O)O)[C@@H](O)[C@H]1F [listing 2 of 2 here] | – | – | – | 5.34
12 | Nc1ccn([C@@H]2O[C@H](CO)[C@@H](O)[C@H]2F)c(=O)n1 | – | – | – | 5.73
13 | Nc1ncnc2c1ncn2[C@@H]1O[C@H](CO)[C@@H](O)[C@H]1F [2'-BETA-FLUORO-2',3'-DEOXYADENOSINE] | – | – | – | 3.99

The next lines start with results.

Row | pEC50 (Hepatitis C virus [2]) | SMILES | CC50 [1] | CC50 [3] | pIC50 (Hepatitis C virus [4])
14 | 3.87 | Nc1ncnc2c1ncn2[C@@H]1O[C@H](COP(=O)(O)O)[C@@H](O)[C@H]1F | > 250 µM | – | –
15 | < 3.60 | O=c1ccn([C@@H]2O[C@H](COP(=O)(O)O)[C@@H](O)[C@H]2F)c(=O)[nH]1 | > 250 µM | – | –
16 | 4.82 | Nc1ccn([C@@H]2O[C@H](COP(=O)(O)O)[C@@H](O)[C@H]2F)c(=O)n1 | > 250 µM | – | –
17 | 3.87 | CCCCOC(=O)[C@H](C)NP(=O)(/C=C/[C@H]1O[C@@H](n2ccc(N)nc2=O)[C@H](F)[C@@H]1O)N[C@@H](C)C(=O)OCCCC | > 250 µM | > 250 µM | –
18 | 4.96 | CCCCOC(=O)[C@H](C)NP(=O)(CC[C@H]1O[C@@H](n2cnc3c(N)ncnc32)[C@H](F)[C@@H]1O)N[C@@H](C)C(=O)OCCCC | 24 µM | 36 µM | –
